Where “and” joins values, the source holds several entries; their conditions need not be identical. Identical values can stand only once.
Legend:
LOXL1 = assay: Immunofluorescence of LOXL1 protein expression in human dermal fibroblasts; type: cell-based; details: 0.5 mg/mL, 48 hours, HDFa
Method: In this experiment the number of times that the expression of the proteins fibulin-5 and LOXL1 in human dermal fibroblasts is increased with regard to the basal levels in untreated cells (negative control) when treating the cells with 0.5 mg/ml of the product Ac-L-Asp-L-Val-L-Lys-L-Tyr-OH and it is compared with the effect of Interleukin-1β (IL-1β) at 20 ng/ml and TGF-β at 5 ng/ml (positive controls), which increase an average of 1.5 times and 2 times, respectively, the expression of these proteins, in the same conditions.
Adult human dermal fibroblasts were seeded (HDFa) (2.5×10^3 cells/well) in a 96-well transparent plate, treated with polylysine, and were incubated in complete medium 106 for 72 hours at 37° C. in an atmosphere with 5% CO2. After the incubation, the cells were treated with the different compounds in complete medium 106 for 48 hours at 37° C. in an atmosphere with 5% CO2. As positive controls of increase of the expression of the proteins fibulin-5 and LOXL1, 5 ng/ml of TGF-β and 20 ng/ml of IL-1β were used and as a negative control untreated cells were used, just with complete medium 106. The incubations and the treatments were carried out in quadruplicate for each condition. After the treatment, the levels of expression of both proteins were quantified relatively by using specific fluorescent antibodies, photographic recording by microscopy and subsequent quantification of the fluorescent signal using image processing software, the number of total cells by fluorescent staining of the nuclei (DAPI) and subsequent quantification in the same images. […] 16 hours later all the samples were stained with DAPI (4′,6-Diamidino-2-Phenylindole), fluorescent marker for the staining of nuclei, and the photographic recording was carried out by fluorescence microscopy in a Leica microscope. 2-4 images were taken per condition and per protein and the fluorescent signals were quantified (IOD) corresponding to each protein and the nuclei by means of image analysis software. […]

[1] = test system: human fibulin-5 gene promoter; assay: Luminescence assay of human fibulin-5 gene promoter activation (Firefly luciferase); type: cell-based; details: 16-24 hours
Method: The effect of the compounds of the invention on the activity of the fibulin-5 and LOXL1 promoters was studied and compared to the levels of basal expression of the untreated cells (negative control) and with the effect of Interleukin-1β (IL-1β) in the same conditions.
Cells from an epithelial cell line doubly transfected with fibulin-5 and LOXL1 human promoters in which the luciferase gene is under the regulatory control of said promoters (4×10^4 cells/well) were seeded in a white plate and in a 96-well transparent plate, both treated with polylysine, and were incubated in Dulbecco's Modified Eagle Medium (DMEM-Glutamax™), with 10% of FBS, 1% Penicillin-Streptomycin (P/S), 1 mg/ml of Geneticin® (G418) and […] at 37° C. in at atmosphere with 5% CO2. After the incubation, the cells were incubated for 6 hours at 37° C. in at atmosphere with 5% CO2 with DMEM without serum. Then, this medium was removed and the cells were treated with different compounds at 0.1 mg/ml, 0.5 mg/ml, 1 mg/ml or 2 mg/mL in DMEM/1% FBS for 16-24 hours. As a positive control to activate the fibulin-5 and LOXL1 promoters 10 ng/ml of IL-1β were used and as a negative control untreated cells were used, just with DMEM/1% FBS. The incubations and treatments were carried out in parallel in the white plate and the transparent plate and in triplicate for each condition. After the treatment, the relative light units per second were determined (RLU/s) in the white plate by means of consecutive quantification of the activities of Firefly luciferase (fibulin-5 promoter) and Renilla luciferase (LOXL1 promoter), and the number of total cells/well in the transparent plate by means of staining with Crystal Violet (CV). To determine the Firefly and Renilla luciferase activities the Dual-Glo Luciferase Assay System kit by Promega was used. The cells were briefly lysed and the Firefly luciferase substrate was added. After incubating for 10 min at 25° C., the RLU/s were quantified by luminescence reader (Lumistar-BMG). Then the Firefly signal was extinguished and the Renilla luciferase substrate was added. After incubating for 5 min at 25° C., the RLU/s were quantified by the same luminescence reader. With regard to the determination of the total number of cells by Crystal Violet, the CV dyes the DNA of the cells and the quantity of dye taken by the cells can be measured in an absorbency reader at 630 nm (Multiskan Ascent). The color obtained is directly proportional to the total number of cells per well. The cells were briefly incubated with 0.05% CV plus 4% Formalin for 20 minutes and after several washes with Milli-Q water, the cells were left to dry for 1-2 hours and then 0.1 M of HCl was added for its immediate reading. The RLU/s of the luciferases corresponding to each promoter were normalized by the average of the total number of cells per condition. Three independent assays with 3 measurements per assay were carried out for Ac-L-Asp-L-Val-L-Lys-L-Tyr-OH at 0.1 mg/mL and 1 mg/mL. 1 assay with 3 measurements was carried out for the other compounds and concentrations.
The increase in the activity of the promoters with regard to the levels of expression of the negative control was determined.

Increase in the activity of the human promoter of the FIBULIN 5 gene with regard to the negative control ([1]; 0.1 mg/mL): 7.46% | Increase in the activity of the human promoter of the FIBULIN 5 gene with regard to the negative control ([1]; 1 mg/mL): 19% and 19.40% | Increase in the activity of the human promoter of the FIBULIN 5 gene with regard to the negative control ([1]; 2 mg/mL): 53.20%
Substance: Ac-L-Asp-L-Val-L-Lys-L-Tyr-OH (Ac-DVKY-OH)
Increase in the expression of the protein LOXL1 with regard to the negative control (LOXL1): 73% and 72.71%

Reference: patent publication US9458194B2, “Compounds useful in the treatment and/or care of the skin and their cosmetic or pharmaceutical compositions” (Lubrizol Advanced Materials, Inc., priority 2013, dated 2016)
